Patent publication US20150105252A1, “SUBSTITUTED PYRAZOLES AS HERBICIDES” (E I DU PONT DE NEMOURS AND COMPANY, priority 2013, published 2015)

Key:
field poppy = test: Test D postemergence; type: in vivo, Papaver rhoeas; conditions: scale 0 to 100
Summary of the method: (§1)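 Postemergence activity was tested on plants at the 1- to 4-leaf stage (2–18 cm) grown in peat-based medium, and preemergence activity on seeds in silt loam, with chemicals in a surfactant-containing non-phytotoxic solvent. Controlled-environment growth lasted 14–21 days before visual 0–100 scoring.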

deadnettle = test: Test D preemergence; type: in vivo, Lamium amplexicaule; conditions: for Plant response rating, Deadnettle: Preemergence, scale 0 to 100
Summary of the method: as §1

buckwheat, wild = test: Test D preemergence; type: in vivo, Polygonum convolvulus; conditions: for Plant response rating, Buckwheat, Wild: Preemergence, scale 0 to 100
Summary of the method: as §1

barley, winter = test: Test D postemergence; type: in vivo, Hordeum vulgare; conditions: scale 0 to 100
Summary of the method: as §1

barley, spring = test: Test D postemergence; type: in vivo, Hordeum vulgare; conditions: scale 0 to 100
Summary of the method: as §1

lambsquarters [1] = test: Test D preemergence; type: in vivo, Chenopodium album; conditions: for Plant response rating, Lambsquarters: Preemergence, scale 0 to 100
Summary of the method: as §1

canarygrass = test: Test D preemergence; type: in vivo, Phalaris minor; conditions: for Plant response rating, Canarygrass: Preemergence, scale 0 to 100
Summary of the method: as §1

kochia = test: Test D preemergence; type: in vivo, Kochia scoparia; conditions: for Plant response rating, Kochia: Preemergence, scale 0 to 100
Summary of the method: as §1

lambsquarters [2] = test: Test D postemergence; type: in vivo, Chenopodium album; conditions: scale 0 to 100
Summary of the method: as §1

bromegrass, downy = test: Test D postemergence; type: in vivo, Bromus tectorum; conditions: scale 0 to 100
Summary of the method: as §1

ryegrass, Italian = test: Test D preemergence; type: in vivo, Lolium multiflorum; conditions: for Plant response rating, Ryegrass, Italian: Preemergence, scale 0 to 100
Summary of the method: as §1

foxtail, green = test: Test D postemergence; type: in vivo, Setaria viridis; conditions: scale 0 to 100
Summary of the method: as §1

speedwell = test: Test D postemergence; type: in vivo, Veronica persica; conditions: scale 0 to 100
Summary of the method: as §1

wheat, spring = test: Test D postemergence; type: in vivo, Triticum aestivum; conditions: scale 0 to 100
Summary of the method: as §1

wheat, winter = test: Test D postemergence; type: in vivo, Triticum aestivum; conditions: scale 0 to 100
Summary of the method: as §1

mustard, wild = test: Test D preemergence; type: in vivo, Sinapis arvensis; conditions: Preemergence, scale 0 to 100
Summary of the method: as §1

oat, wild = test: Test D postemergence; type: in vivo, Avena fatua; conditions: scale 0 to 100
Summary of the method: as §1

[3] = 16 g ai/ha, taken as preemergence

CCc1cc(C(=O)NC2CC2)nn1Cc1ccnc(C(F)(F)F)c1 [Compound 76]
Plant response rating, Field Poppy (field poppy; Postemergence, 16 g ai/ha): 60
Field Poppy plant response rating (field poppy; Postemergence, 31 g ai/ha): 65
Field Poppy plant response rating (field poppy; Postemergence, 125 g ai/ha): 85
Field Poppy plant response rating (field poppy; Postemergence, 250 g ai/ha): 90
Field Poppy plant response rating (field poppy; postemergence, 62 g ai/ha): 70
Plant response rating (scale 0 to 100), Deadnettle (deadnettle; [3]): 0
Plant response rating, Deadnettle (deadnettle; 31 g ai/ha): 50
Plant response rating, Deadnettle (deadnettle; 62 g ai/ha): 100
Plant response rating, Deadnettle (deadnettle; 125 g ai/ha): 100
Plant response rating, Deadnettle (deadnettle; 250 g ai/ha): 100
Plant response rating (scale 0 to 100), Buckwheat, Wild (buckwheat, wild; [3]): 0
Plant response rating, Buckwheat, Wild (buckwheat, wild; 31 g ai/ha): 20
Plant response rating, Buckwheat, Wild (buckwheat, wild; 62 g ai/ha): 70
Plant response rating, Buckwheat, Wild (buckwheat, wild; 125 g ai/ha): 100
Plant response rating, Buckwheat, Wild (buckwheat, wild; 250 g ai/ha): 100
Barley, Winter plant response rating (barley, winter; Postemergence, 16 g ai/ha): 10
Barley, Winter plant response rating (barley, winter; Postemergence, 31 g ai/ha): 10
Barley, Winter plant response rating (barley, winter; Postemergence, 125 g ai/ha): 15
Barley, Winter plant response rating (barley, winter; Postemergence, 250 g ai/ha): 20
Barley, Winter plant response rating (barley, winter; postemergence, 62 g ai/ha): 10
Barley, Spring plant response rating (barley, spring; Postemergence, 16 g ai/ha): 0
Barley, Spring plant response rating (barley, spring; Postemergence, 31 g ai/ha): 0
Barley, Spring plant response rating (barley, spring; Postemergence, 125 g ai/ha): 10
Barley, Spring plant response rating (barley, spring; Postemergence, 250 g ai/ha): 15
Barley, Spring plant response rating (barley, spring; postemergence, 62 g ai/ha): 5
Plant response rating (scale 0 to 100), Lambsquarters (lambsquarters [1]; [3]): 30
Plant response rating, Lambsquarters (lambsquarters [1]; 31 g ai/ha): 70
Plant response rating, Lambsquarters (lambsquarters [1]; 62 g ai/ha): 95
Plant response rating, Lambsquarters (lambsquarters [1]; 125 g ai/ha): 100
Plant response rating, Lambsquarters (lambsquarters [1]; 250 g ai/ha): 100
Plant response rating (scale 0 to 100), Canarygrass (canarygrass; [3]): 0
Plant response rating, Canarygrass (canarygrass; 31 g ai/ha): 5
Plant response rating, Canarygrass (canarygrass; 62 g ai/ha): 65
Plant response rating, Canarygrass (canarygrass; 125 g ai/ha): 100
Plant response rating, Canarygrass (canarygrass; 250 g ai/ha): 100
Plant response rating (scale 0 to 100), Kochia (kochia; [3]): 20
Plant response rating, Kochia (kochia; 31 g ai/ha): 100
Plant response rating, Kochia (kochia; 62 g ai/ha): 100
Plant response rating, Kochia (kochia; 125 g ai/ha): 100
Plant response rating, Kochia (kochia; 250 g ai/ha): 100
Plant response rating, Lambsquarters (lambsquarters [2]; Postemergence, 16 g ai/ha): 65
Lambsquarters plant response rating (lambsquarters [2]; Postemergence, 31 g ai/ha): 70
Lambsquarters plant response rating (lambsquarters [2]; Postemergence, 125 g ai/ha): 95
Lambsquarters plant response rating (lambsquarters [2]; Postemergence, 250 g ai/ha): 100
Lambsquarters plant response rating (lambsquarters [2]; postemergence, 62 g ai/ha): 75
Plant response rating, Bromegrass, Downy (bromegrass, downy; Postemergence, 16 g ai/ha): 0
Bromegrass, Downy plant response rating (bromegrass, downy; Postemergence, 31 g ai/ha): 0
Bromegrass, Downy plant response rating (bromegrass, downy; Postemergence, 125 g ai/ha): 10
Bromegrass, Downy plant response rating (bromegrass, downy; Postemergence, 250 g ai/ha): 15
Bromegrass, Downy plant response rating (bromegrass, downy; postemergence, 62 g ai/ha): 5
Plant response rating (scale 0 to 100), Ryegrass, Italian (ryegrass, Italian; [3]): 0
Plant response rating, Ryegrass, Italian (ryegrass, Italian; 31 g ai/ha): 0
Plant response rating, Ryegrass, Italian (ryegrass, Italian; 62 g ai/ha): 15
Plant response rating, Ryegrass, Italian (ryegrass, Italian; 125 g ai/ha): 65
Plant response rating, Ryegrass, Italian (ryegrass, Italian; 250 g ai/ha): 95
Plant response rating, Foxtail, Green (foxtail, green; Postemergence, 16 g ai/ha): 5
Foxtail, Green plant response rating (foxtail, green; Postemergence, 31 g ai/ha): 35
Foxtail, Green plant response rating (foxtail, green; Postemergence, 125 g ai/ha): 55
Foxtail, Green plant response rating (foxtail, green; Postemergence, 250 g ai/ha): 85
Foxtail, Green plant response rating (foxtail, green; postemergence, 62 g ai/ha): 15
Plant response rating, Speedwell (speedwell; Postemergence, 16 g ai/ha): 65
Speedwell plant response rating (speedwell; Postemergence, 31 g ai/ha): 60
Speedwell plant response rating (speedwell; Postemergence, 125 g ai/ha): 75
Speedwell plant response rating (speedwell; Postemergence, 250 g ai/ha): 100
Speedwell plant response rating (speedwell; postemergence, 62 g ai/ha): 75
Plant response rating, Wheat, Spring (wheat, spring; Postemergence, 16 g ai/ha): 0
Wheat, Spring plant response rating (wheat, spring; Postemergence, 31 g ai/ha): 5
Wheat, Spring plant response rating (wheat, spring; Postemergence, 125 g ai/ha): 5
Wheat, Spring plant response rating (wheat, spring; Postemergence, 250 g ai/ha): 10
Wheat, Spring plant response rating (wheat, spring; postemergence, 62 g ai/ha): 5
Plant response rating, Wheat, Winter (wheat, winter; Postemergence, 16 g ai/ha): 0
Wheat, Winter plant response rating (wheat, winter; Postemergence, 31 g ai/ha): 0
Wheat, Winter plant response rating (wheat, winter; Postemergence, 125 g ai/ha): 15
Wheat, Winter plant response rating (wheat, winter; Postemergence, 250 g ai/ha): 20
Wheat, Winter plant response rating (wheat, winter; postemergence, 62 g ai/ha): 10
Plant response rating, Mustard, Wild (mustard, wild; 31 g ai/ha): 60
Plant response rating, Mustard, Wild (mustard, wild; 62 g ai/ha): 100
Plant response rating, Mustard, Wild (mustard, wild; 125 g ai/ha): 100
Plant response rating, Mustard, Wild (mustard, wild; 250 g ai/ha): 100
Plant response rating, Oat, Wild (oat, wild; Postemergence, 16 g ai/ha): 5
Oat, Wild plant response rating (oat, wild; Postemergence, 31 g ai/ha): 5
Oat, Wild plant response rating (oat, wild; Postemergence, 125 g ai/ha): 10
Oat, Wild plant response rating (oat, wild; Postemergence, 250 g ai/ha): 15
Oat, Wild plant response rating (oat, wild; postemergence, 62 g ai/ha): 10
